{"source": "paper PMC6839502", "about": "(Journal of Alzheimer's Disease, 2019)", "key": {"[1]": {"test": "Safety and tolerability in study B8271007", "assay_type": "in vivo, human", "details": "100 mg QD"}, "[2]": {"test": "ECG QTcF change in SAD and MAD studies", "assay_type": "in vivo, human"}, "[3]": {"test_system": "BACE1 over BACE 2", "details": "radioligand binding assay; cited from earlier work"}, "[4]": {"test_system": "Aβ40 and Aβ42", "details": "animal studies, subcutaneous administration; cited from earlier work"}}, "data": [{"smiles": "C[C@H]1C[C@H]2CSC(N)=N[C@@]2(c2nc(NC(=O)c3ccc(OC(F)F)cn3)cs2)CO1", "note": "[PF-06751979]", "values": [{"measurement": "ALT elevation, one subject", "setting": "[1]; period 2, Day 7", "value": 2.12, "unit": "×ULN"}, {"measurement": "AST elevation, one subject", "setting": "[1]; period 2, Day 7", "value": 1.23, "unit": "×ULN"}, {"measurement": "AST peak, one subject", "setting": "[1]; period 2, Day 12", "value": 1.75, "unit": "×ULN"}, {"measurement": "ALT peak, one subject", "setting": "[1]; period 2, Day 13", "value": 3.33, "unit": "×ULN"}, {"measurement": "Maximum placebo-adjusted mean QTcF change from baseline", "setting": "[2]; 275 mg QD for 14 days, 90% CI: 4.5, 21.1", "value": 12.8, "unit": "ms"}, {"measurement": "Maximum placebo-adjusted mean QTcF change from baseline", "setting": "[2]; single dose 540 mg, 90% CI: 7.6, 22.2", "value": 14.9, "unit": "ms"}, {"measurement": "Selectivity for BACE1 over BACE2", "setting": "[3]", "value": 26.6, "unit": "fold"}, {"measurement": "Aβ40 and Aβ42 in the brain and CSF", "setting": "[4]", "value": "robust reductions"}]}]}
